Measured values as given in ChEMBL document CHEMBL1201862, “PubChem BioAssay data set” (2004).
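In this assay, cells in 96-well plates receive the compound at five concentrations for 48 hours. Endpoints are linearly interpolated between the surrounding concentrations. GI50 = concentration required for 50% inhibition of growth.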 Activity calls are given as the source filed them. No stated cut-off is given here; in the data, active = GI50 up to about 1.1 µM and inactive = higher.

Experiments:
Experiment in all cases: NCI-60 cell line screen, 48 h
SW-620 = tested on: SW-620
UACC-257 = tested on: UACC-257
NCI-H226 = tested on: NCI-H226
LOX IMVI = tested on: LOX IMVI
OVCAR-3 = tested on: OVCAR-3
UO-31 = tested on: UO-31
RXF 393 = tested on: RXF 393
T47D = tested on: T47D
SNB-19 = tested on: SNB-19
MDA-MB-435 = tested on: MDA-MB-435
OVCAR-5 = tested on: OVCAR-5
A549 = tested on: A549
HOP-62 = tested on: HOP-62
HL-60 = tested on: HL-60
HCC 2998 = tested on: HCC 2998
OVCAR-4 = tested on: OVCAR-4
UACC-62 = tested on: UACC-62
PC-3 = tested on: PC-3
NCI-H522 = tested on: NCI-H522
SR = tested on: SR

Measured: GI50

O=C(Cc1csc(N/N=C2\C(=O)Nc3ccccc32)n1)Nc1ccccc1
inactive: SW-620 33 µM | UACC-257 25 µM | NCI-H226 10 µM | LOX IMVI 46.5 µM | OVCAR-3 24.2 µM | UO-31 25.3 µM | RXF 393 62.7 µM | T47D 28.4 µM | SNB-19 26.9 µM | MDA-MB-435 39.5 µM | OVCAR-5 > 100 µM | A549 39.9 µM | HOP-62 18.1 µM | HL-60 37.1 µM | HCC 2998 31.6 µM | OVCAR-4 41.5 µM

C=Cn1c([N+](=O)[O-])cnc1/C=C/c1ccc(C(=O)OCCN2CCOCC2)cc1
inactive: SW-620 > 100 µM | UACC-257 > 100 µM | UACC-62 > 100 µM | PC-3 > 100 µM | NCI-H226 > 100 µM | LOX IMVI > 100 µM | OVCAR-3 > 100 µM | RXF 393 > 100 µM | T47D > 100 µM | SNB-19 > 100 µM | MDA-MB-435 > 100 µM | OVCAR-5 > 100 µM | A549 > 100 µM | HOP-62 > 100 µM | NCI-H522 > 100 µM | OVCAR-4 > 100 µM

N#Cc1ccccc1C#C/C=C\C#Cc1ccccn1
inactive: SW-620 12.6 µM | UACC-257 13.7 µM | UACC-62 15.3 µM | PC-3 13.7 µM | OVCAR-3 4.27 µM | UO-31 15.3 µM | RXF 393 14.1 µM | T47D 20.8 µM | SNB-19 25.9 µM | OVCAR-5 28.6 µM | A549 19.8 µM | HOP-62 19 µM | SR 4.12 µM | HL-60 6.71 µM | HCC 2998 14.5 µM | OVCAR-4 75.9 µM

N#C/C=C\c1ccc(-c2cc(C(F)(F)F)cc(C(F)(F)F)c2)o1
inactive: SW-620 49.7 µM | UACC-257 > 100 µM | UACC-62 23.3 µM | PC-3 > 100 µM | NCI-H226 55.8 µM | LOX IMVI 38.7 µM | OVCAR-3 > 100 µM | UO-31 > 100 µM | RXF 393 44.6 µM | SNB-19 30 µM | MDA-MB-435 2.57 µM | OVCAR-5 > 100 µM | A549 91.6 µM | HOP-62 21.1 µM | NCI-H522 48 µM | SR 19.3 µM | HL-60 17.7 µM | HCC 2998 21.6 µM | OVCAR-4 91.8 µM

c1ccc(CSC(SCc2ccccc2)c2ccc3c(c2)OCO3)cc1
inactive: SW-620 > 10 µM | UACC-257 > 10 µM | UACC-62 > 10 µM | PC-3 > 10 µM | NCI-H226 > 10 µM | LOX IMVI > 10 µM | OVCAR-3 > 10 µM | UO-31 > 10 µM | RXF 393 > 10 µM | T47D > 10 µM | SNB-19 > 10 µM | A549 > 10 µM | HOP-62 > 10 µM | NCI-H522 > 10 µM | HL-60 > 10 µM | HCC 2998 > 10 µM | OVCAR-4 > 10 µM

Cn1ccc2c(c1=O)C(=O)OC2(C)C [CERPEGIN]
inactive: SW-620 > 100 µM | UACC-257 > 100 µM | UACC-62 > 100 µM | PC-3 > 100 µM | NCI-H226 > 100 µM | LOX IMVI > 100 µM | OVCAR-3 > 100 µM | UO-31 59.2 µM | RXF 393 > 100 µM | T47D > 100 µM | SNB-19 25.5 µM | OVCAR-5 > 100 µM | A549 > 100 µM | HOP-62 > 100 µM | SR > 100 µM | HL-60 > 100 µM | HCC 2998 > 100 µM | OVCAR-4 > 100 µM
